Reference: patent publication US20080287396A1, “Phosphonated Fluoroquinolones, Antibacterial Analogs Thereof, and Methods for the Prevention and Treatment of Bone and Joint Infections” (TARGANTA THERAPEUTICA INC., priority 2005, published 2008)
Converted amounts (≈) assume the structure as drawn. “Also recorded” adds a separate entry of the source.

What was measured:
[1] = system: S. aureus strains ATCC13709 and RN4220; test: microbe, parasite or virus in culture; assay type: cell-based; conditions: Staphylococcus aureus, read-out: minimum inhibitory concentration (MIC)
Experimental: (§1) Susceptibility of S. aureus strains ATCC13709 and RN4220 to the commercial antibiotics and synthesized compounds was determined by following the guidelines set by the Clinical and Laboratory Standards Institute (formerly the National Committee for Clinical Laboratory Standards) (M26-A). Compounds were diluted two-fold serially in DMSO and transferred to cation-adjusted Mueller Hinton broth (CAMHB; Becton Dickinson). 50 μL of compounds diluted in CAMHB was mixed with 100 μL of bacteria diluted in CAMHB in 96-well microtiter plates. The final number of micro-organisms in the assay was 5×10^5 c.f.u. per mL and the final concentration of DMSO in the assay was 1.25%. Assays were set up in duplicate and incubated at 37° C. for 18 h. The concentration of compound that inhibited visible growth was reported as the minimum inhibitory concentration (MIC).

[2] = Bone powder binding, fluorometric detection; conditions: for Binding to bone (%) Fluorescence: 1 mg/ml compound, bone meal powder 10 mg/ml in PBS, 37° C., 1 h
Method in brief: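 LC/MS method: 100 μM compound in 0.1 M Tris-HCl pH 7, 0.15 M NaCl shaken 10 min with or without ground rat tibia, centrifuged, unbound compound measured in supernatant. Fluorometric method: 1 mg/ml compound in 10 mg/ml bone meal/PBS, 1 h at 37 °C, pellet washed. Supernatant fluoroquinolone read at 280/465 nm; bound amount taken as input minus recovered.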

[3] = system: S. aureus ATCC 13709; test: Prophylactic model of bone infection in rats; assay type: in vivo, rat; conditions: for bacterial titer compared with untreated group: 10 mg/kg IV 1 h after infection (positive control); for prophylactic effect in rat model of bone infection, in words: Table 4 and FIGS. 6-8, doses as in Table 4
Method in brief: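 Female CD rats (n=5/group) given intra-tibial 5% sodium morrhuate then S. aureus (ca. 5×10^5 CFU/rat), hole sealed with dental cement. Prodrugs given as single IV bolus in 0.9% saline at various times before infection; parent at molar equivalent dose. Tibiae harvested 24 h postinfection; Log CFU/g bone, detection limit 2 Log CFU/g.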

[4] = Regeneration of drug from bone powder-bound prodrug; assay type: in vitro ADME; conditions: for effect of the medium (presence or absence of serum) on regeneration rate: PBS vs serum
Experimental: Amounts of drug “regenerated” from the phosphonated parent prodrug were measured as follows. Washed bone powder-bound prodrugs from the above section were resuspended in 400 μL PBS or in 400 μL 50% (v/v in PBS) human or rat serum. […] Methanol (5× volume relative to supernatant) was added to each supernatant and the mixture was vortexed on a floor model vortex for 15 min to extract freed fluoroquinolone. The mixture was then centrifuged at 10 000 rpm for 15 min to pellet the insoluble material. The supernatant containing the extracted fluoroquinolone was recovered and evaporated to dryness in a speed vac. The dried pellets were resuspended in PBS and the amount of fluoroquinolone was determined by fluorescence measurements as described above. The percentage of drug regenerated was deduced from the difference between amount of bound prodrug and the amount of regenerated drug. The identity of regenerated drug was deduced by MIC determination; MICs of regenerated material matched those of parent drugs but not those of prodrugs.

[5] = Bone powder binding, LC/MS detection; conditions: 100 μM compound, Tris-HCl pH 7, 0.15M NaCl, ground rat tibia bone, 10 min
Experimental: The ability of the example molecules to bind to bone powder was established in two parallel fashions, using either LC/MS or fluorometric detection. For LC/MS detection, a stock solution (5 mM) of the compound to be tested was added to 0.1M Tris-HCl buffer pH 7, 0.15M NaCl to reach a final concentration of 100 μM. Triplicate samples (1 mL) of the compound solutions were intensively shaken for 10 min with or without 25 mg of fresh or 20 mg of vacuum dried ground rat tibia bone. The samples were then centrifuged for 15 min at 10 000 g. The presence of unbound compound was measured by injection of 30 μL of each of the supernatants into an Agilent 1100™ LC/UV system. For fluorometric detection, an individual compound was dissolved in PBS or water (compound 52) and resuspended at a concentration of 1 mg/ml in a slurry of bone meal powder (Now Foods, Bloomingdale, Ill., USA) in PBS at 10 mg/ml. The suspension of drug/prodrug in bone meal powder was incubated at 37° C. for 1 h to allow for binding, and centrifuged at 13 000 rpm for 2 min, before recovering the supernatant. The bone meal powder pellet was then washed three times with 1 ml of PBS. All supernatants were saved and assessed for fluoroquinolone content by fluorescence measurements at excitation/emission wavelengths of 280/465 nm. The amount of fluoroquinolone was determined from standard curves generated for each experiment. Amount of drug/prodrug bound to bone powder was deduced from the difference between the input amount (typically 1 mg) and the amount recovered in the supernatants after binding. In all binding experiments, >99% of input drug was recovered in the supernatant for the parent drugs.

[6] = system: Hela cells; test: Cytotoxicity assay (MTS reduction); assay type: cell-based; conditions: concentrations up to 100 μM, 18 h, MTS reagent; data not shown
Experimental: Selected compounds were also tested for their ability to inhibit growth of mammalian cells so as to ascertain levels of cytotoxicity to the mammalian host, via an assay measuring the biological reduction of the inner salt of (3-(4,5-dimethylthiazol-2-yl)-5-(3-carboxymethoxyphenyl)-2-(4-sulfophenyl)-2H-tetrazolium (MTS reagent). Assays were performed in 96-well microtiter plates. Briefly, compounds at 100, 50, 25, and 12.5 μM concentrations were incubated with 2×10^4 Hela cells per well in Dulbecco's Modified Eagle Medium (Invitrogen Corporation) containing 1% Bovine Growth Serum (HyClone) for 18 h at 37° C. under 5% CO2.

[7] = system: S. aureus strains ATCC13709 and RN4220; test: Susceptibility testing (MIC) in the presence of serum; assay type: cell-based; conditions: Staphylococcus aureus
Experimental: as §1
Susceptibility testing experiments were also carried out in the presence of serum. These experiments were carried out similar to the susceptibility testing with the following modifications. 75 μL of compounds diluted in CAMHB was mixed with 75 μL of bacteria diluted in 100% serum from any given source (commercial pooled mouse serum (MS) and human serum (HS), Equitech-Bio Inc.) or diluted in 8% purified human serum albumin (HSA) (Calbiochem). […]

[8] = ATCC13709, CAMHB, 37° C., 18 h, data not shown

## COc1c(N2C[C@@H]3CCCN[C@@H]3C2)c(F)cc2c(=O)c(C(=O)O)cn(C3CC3)c12 [Compound 3, Moxifloxacin, reference compound]
[1]; [8]
  MIC: 0.5 to 1 µg/mL (≈ 1.25 to 2.49 µM)
[2]
  Binding to bone (%) Fluorescence: 0%
[3]
  bacterial titer compared with untreated group: significant decrease in the bacterial titer
[3]; listed as moxifloxacin 3
  bacterial titer compared with untreated group: significant (p<0.05) decrease in bacterial titer; also recorded: significant (p-value ≦0.0002) decrease in bacterial titer
[3]; used five or two days prior to infection
  prophylaxis by the parent drug, in words: unable to exhibit such efficient prophylaxis

## COc1c(N2CCNC(C)C2)c(F)cc2c(=O)c(C(=O)O)cn(C3CC3)c12 (stereo not shown) [Compound 15, Gatifloxacin, reference compound]
[1]; [8]
  MIC: 0.5 to 1 µg/mL (≈ 1.33 to 2.66 µM)
[2]
  Binding to bone (%) Fluorescence: 0%
[3]; 10 mg/Kg (equivalent dose) 48 h prior to infection (FIG. 8)
  prophylactic effect on bacterial titer: without effect

## COc1c(N2CCN(C(=O)CC(C)(C)c3cc(P(=O)(O)CP(=O)(O)O)ccc3OC(C)=O)C(C)C2)c(F)cc2c(=O)c(C(=O)O)cn(C3CC3)c12 (stereo not shown) [Compound 141]
[1]; [8]
  MIC: 4 µg/mL (≈ 5.32 µM)
[4]
  effect of the medium (presence or absence of serum) on regeneration rate: fairly similar rates
[2]
  Binding to bone (%) Fluorescence: 36.6%
[2]; bisphosphonates bearing three hydroxy groups
  binding to osseous matter, in words: less effectively bound
[3]; 45.4 mg/kg IV, 2 days prior to infection
  Measured bacterial titer (Log CFU/g of bone) Test compound: 2.40 ± 0.44 Log CFU/g of bone
[3]
  prophylactic effect in rat model of bone infection, in words: efficient prophylactic effect

## COc1c(N2CCNC(C)C2)c(F)cc2c(=O)c(C(=O)OCCCCC(P(=O)(O)O)P(=O)(O)O)cn(C3CC3)c12 (stereo not shown) [Compound 28, 5,5-bisphosphonopentyl 7-(3-methylpiperazin-1-yl)-1-cyclopropyl-6-fluoro-1,4-dihydro-8-methoxy-4-oxoquinoline-3-carboxylate]
[5]
  Binding to bone (%) LC/MS: 91.9 ± 5.5%
[6]
  cytotoxicity: no signs of any cytotoxicity

## COc1c(N2CCNC(C)C2)c(F)cc2c(=O)c(C(=O)OCCCC(P(=O)(O)O)P(=O)(O)O)cn(C3CC3)c12 (stereo not shown) [Compound 18, 4,4-bisphosphonobutyl 7-(3-methylpiperazin-1-yl)-1-cyclopropyl-6-fluoro-1,4-dihydro-8-methoxy-4-oxoquinoline-3-carboxylate]
[5]
  Binding to bone (%) LC/MS: 96.0 ± 2.4%
[6]
  cytotoxicity: no signs of any cytotoxicity

## COc1c(N2C[C@@H]3CCCN[C@@H]3C2)c(F)cc2c(=O)c(C(=O)OCCCCC(P(=O)(O)O)P(=O)(O)O)cn(C3CC3)c12 [Compound 25, 5,5-bisphosphonopentyl 7-((4aS,7aS)-octahydropyrrolo[3,4-b]pyridin-6-yl)-1-cyclopropyl-6-fluoro-1,4-dihydro-8-methoxy-4-oxoquinoline-3-carboxylate]
[1]; [8]
  MIC: 32 µg/mL (≈ 50.7 µM)
[7]; ATCC13709, in serum (kind not stated), read-out: MIC in serum
  MIC: 32 µg/mL
[5]
  Binding to bone (%) LC/MS: 87.6 ± 11.5%
[4]; 7 days, medium not stated
  drug released from the bone matter after 7 days of incubation, in words: signs of drug release
[2]
  Binding to bone (%) Fluorescence: 92.7%

## COc1c(N2CCN(C(=O)OC(C)OC(=O)CCCC(P(=O)(O)O)P(=O)(O)O)C(C)C2)c(F)cc2c(=O)c(C(=O)O)cn(C3CC3)c12 (stereo not shown) [Compound 44]
[1]; [8]
  MIC: 1 to 8 µg/mL (≈ 1.41 to 11.3 µM)
[4]
  effect of the medium (presence or absence of serum) on regeneration rate: fairly similar rates
[2]
  Binding to bone (%) Fluorescence: 88.4%
[3]; 20 mg/kg IV, 3 days prior to infection
  Measured bacterial titer (Log CFU/g of bone) Test compound: 4.72 ± 0.83 Log CFU/g of bone
[3]
  prophylactic effect in rat model of bone infection, in words: unable to produce a positive result in vivo

## CCOP(=O)(OCC)C(CCCCOC(=O)c1cn(C2CC2)c2c(OC)c(N3C[C@@H]4CCCN[C@@H]4C3)c(F)cc2c1=O)P(=O)(OCC)OCC.O=C(O)C(F)(F)F [Compound 26, 5,5-bis(diethylphosphono)pentyl 7-((4aS,7aS)-octahydropyrrolo[3,4-b]pyridin-6-yl)-1-cyclopropyl-6-fluoro-1,4-dihydro-8-methoxy-4-oxoquinoline-3-carboxylate, trifluoroacetate salt]
[1]; ATCC13709, 18 h
  MIC: 32 µg/mL
[7]; ATCC13709, read-out: MIC in the presence of 50% mouse serum in the medium
  MIC: 0.5 µg/mL
[6]
  cytotoxicity: no signs of any cytotoxicity
